What was measured:
[1] = test system: CD4+ T-cell clones; experiment: Peptide-specific T-cell clones from patients (HLA class II allele, peptide titration); assay type: cell-based, human
From the text: A value above 2 is considered as a positive response.
T-cell clones specific for all of the peptides of 15- or 30-amino acids shown in Table 1 have also been obtained from patients. […] This is important in order to be able to induce strong immune response in vivo where peptide concentrations are lower.
In addition, the 15- and 30-mer peptides listed in Table 1 show reactivity in nearly all patients tested, which means they are promiscuous with respect to the HLA class II alleles on which they are presented and that they are applicable to nearly the whole population without any need for HLA-screening (see Table 2).

[2] = test system: T cells (patient PBMCs); experiment: T-cell proliferation assay (3H-thymidine) of patient PBMC/T cells with hTERT peptides or transfected DC; assay type: cell-based, human; conditions: for response of clinical non-responders: GV1001-vaccinated; for immunological responses in clinical responders: patients responding / 7 clinical responders; for immunological responses in clinical non-responders: patients responding / 10 clinical non-responders; for proliferative T-cell response (detected or not): pancreas cancer patient vaccinated with DC/hTERT mRNA
Method: FIG. 1 is a bar graph summarising hTERT T-cell responses detected in pancreas cancer patient vaccinated with DC transfected with hTERT mRNA. In samples from various time points throughout a vaccination schedule, T-cell responses against 24 overlapping hTERT 15-mer peptides were detected. Proliferation in response to peptide-loaded PBMC was measured by ^3H-thymidine incorporation. A stimulation index of >2 is considered an immune response.
Peripheral blood mononuclear cells (PBMCs) were obtained prior to the four standard vaccinations, after 5 weeks and after 12 weeks. PBMCs were also obtained before each monthly booster vaccination. The PBMCs were isolated and frozen as previously described (Kyte et al, 2005). Thawed PBMCs were stimulated once in vitro with tDCs (not with mockDCs) and cultured and then tested in T cell proliferation assays (^3H Thymidine) as previously described (Kyte et al 2006). The T cells were tested in triplicates. Irradiated tDCs and mock-transfected DC controls (mockDCs) were used or PBMC with or without hTERT peptide as APCs. Negative controls with T cells only were included.
PBMCs from various time points were stimulated with an overlapping hTERT 15-mer peptide library or a 30-mer hTERT peptide, all from ProImmune and then tested in proliferation assays as above using irradiated PBMCs as APCs as described in (Bernhardt et al 2006).
T-cell responses to a hTERT peptide library (including the polypeptides from Table 1) were determined for T-cells from 5 patients in addition to the patients reported in Examples 1 and 2. The methods were the same as previously described in Example 1 or in Bernhardt et al 2006. In brief, PBMCs from various time points during vaccination were stimulated with the overlapping hTERT peptide library prior to testing for specific T-cell responses in proliferation assays.
The proliferative T-cell responses of each patient to a series of peptides were then determined as explained in Example 1. The results are tabulated in Table 5 and are shown graphically in FIG. 14 in which the peptide designations are referenced in Table 6 (the results for peptides 726 and GV1001 are shown only for comparison).
Four patients who were clinical non-responders following a lung cancer diagnosis and a GV1001 (SEQ ID NO. 10) peptide vaccination were studied. These patients were all stage IV lung cancer patients vaccinated with GV1001. […] The proliferative T-cell responses of each patient to a series of peptides were determined in the same manner as in Example 1, at one time point. The peak response of each patient during the study period to peptide GV1001 is also shown which confirms that each patient responded immunologically to GV1001 vaccination.
Six patients who were clinical non-responders following a melanoma cancer diagnosis and a GV1001 peptide (SEQ ID NO. 10) vaccination were studied. These patients were all stage IV melanoma patients and included in the same GV1001 vaccination trial as melanoma patients P7 and P8 who were long term survivors (see Example 6). […] Five of the patients also experienced progressive disease and one patient, designated Melanoma P3, experienced some stabilization of the disease but still had short survival. The proliferative T-cell responses of each patient to a series of peptides were determined in the same manner as in Example 1, at one time point. The peak response of each patient during the study period to peptide GV1001 is also shown which confirms that each patient responded immunologically to GV1001 vaccination.

[3] = test system: pancreas cancer patient; experiment: Clinical course of pancreas cancer patient; assay type: in vivo, human
Method: The vaccine consisted of 5×10^6 autologous monocyte-derived dendritic cells loaded with hTERT mRNA. The patient received 4 weekly injections followed by monthly booster injections.
Adverse events were recorded and graded according to the NCI-common toxicity criteria, as previously reported (Kyte et al, 2006 Gene therapy). […] Objective tumour response was assessed by clinical examination and CT scans prior to start of vaccination and every 3 months during the vaccination. The tumour response was classified according to the Response Evaluation Criteria in Solid Tumors (RECIST) (Therasse P et al, 2000).

[4] = test system: CD8+ T cells (patient PBMCs); experiment: Pentamer staining of hTERT-specific CD8+ T cells by flow cytometry; assay type: cell-based, human; conditions: for patients with CTL responses shown by pentamer analysis: patients of Examples 1 to 8; for peptide-specific CD8+ T lymphocytes detected by pentamer: HLA-B7+ lung cancer patient in complete remission after GV1001 vaccination, up to six years (FIG. 6)
[5] = test system: T cells stimulated with peptide-loaded autologous EBV-LCL; experiment: Intracellular cytokine staining of peptide-stimulated T cells; assay type: cell-based, human
[6] = HLA class II allele DR*04, 3 patients, malignant melanoma
[7] = four stage IV lung cancer patients
[8] = patient Colon ca P1, GV1001-vaccinated, clinical responder
[9] = patient Lung ca P1, GV1001-vaccinated, clinical non-responder, one time point
[10] = patient Lung ca P2, GV1001-vaccinated, clinical non-responder, one time point
[11] = patient Lung ca P3, GV1001-vaccinated, clinical non-responder, one time point
[12] = patient Lung ca P4, GV1001-vaccinated, clinical non-responder, one time point
[13] = patient Lung ca P5, GV1001-vaccinated, clinical responder
[14] = patient Lung ca P6, DC/hTERT mRNA-vaccinated, clinical responder, high background
[15] = patient Melanoma P1, GV1001-vaccinated, clinical non-responder, one time point
[16] = patient Melanoma P2, GV1001-vaccinated, clinical non-responder, one time point
[17] = patient Melanoma P3, GV1001-vaccinated, clinical non-responder, one time point
[18] = patient Melanoma P4, GV1001-vaccinated, clinical non-responder, one time point
[19] = patient Melanoma P5, GV1001-vaccinated, clinical non-responder, one time point
[20] = patient Melanoma P6, GV1001-vaccinated, clinical non-responder, one time point
[21] = patient Melanoma P7, GV1001-vaccinated, clinical responder
[22] = patient Melanoma P8, GV1001-vaccinated, clinical responder
[23] = patient Melanoma P9, non-vaccinated, spontaneous response
[24] = patient Pancreas ca P1, DC/hTERT mRNA-vaccinated, clinical responder, high background
[25] = GV1001 vaccinated lung cancer patient

Compound | response of clinical non-responders [2, 7] | proliferative T-cell response (SI) [2, 8] | proliferative T-cell response (SI) [2, 9] | proliferative T-cell response (SI) [2, 10] | proliferative T-cell response (SI) [2, 11] | proliferative T-cell response (SI) [2, 12] | proliferative T-cell response (SI) [2, 13] | proliferative T-cell response (SI) [2, 14] | proliferative T-cell response (SI) [2, 15] | proliferative T-cell response (SI) [2, 16] | proliferative T-cell response (SI) [2, 17] | proliferative T-cell response (SI) [2, 18] | proliferative T-cell response (SI) [2, 19] | proliferative T-cell response (SI) [2, 20] | proliferative T-cell response (SI) [2, 21] | proliferative T-cell response (SI) [2, 22] | proliferative T-cell response (SI) [2, 23] | proliferative T-cell response (SI) [2, 24] | immunological responses in clinical responders [2] | response of clinical non-responders ([2]; six stage IV melanoma patients) | other results
SVLNYERARRPGLLG (listed as Homo sapiens) [SEQ ID NO. 2] | – | – | – | – | – | – | – | – | – | – | – | – | – | – | – | – | – | – | – | – | Specific clones ([1]; HLA class II allele DR*01, 2 patients, malignant melanoma): T-cell lines; Specific clones [1, 6]: 3; Specific clones ([1]; HLA class II allele DR*08, 2 patients, malignant melanoma and lung cancer): >85
RTFVLRVRAQDPPPE (listed as Homo sapiens) [SEQ ID NO. 7] | very low or no response | 20.6 | 1.3 | 1 | 1.2 | 0.4 | 1.1 | 0.8 | 0.9 | 1 | 0.7 | 1 | 1.2 | 4.8 | 4.9 | 2.8 | 5.7 | 2.5 | 5/7 | very low or no response | immunological responses in clinical non-responders [2]: 1/10
Nc1ccn([C@@H]2O[C@H](CO)[C@@H](O)C2(F)F)c(=O)n1 [gemcitabine] | – | – | – | – | – | – | – | – | – | – | – | – | – | – | – | – | – | – | – | – | adverse effects ([3]; after 5 months): suspended due to adverse effects; Clinical response ([3]; before DC vaccination): disease stabilization
RLTSRVKALFSVLNY (listed as Homo sapiens) [SEQ ID NO. 8] | very low or no response | 2.6 | 1.2 | 0.9 | 1.1 | 1.1 | 0.8 | 2.1 | 0.9 | 0.8 | 0.6 | 1.1 | 7.1 | 0.8 | 4.8 | 6.3 | 4.2 | 1.3 | – | very low or no response | Specific clones [1, 6]: 3
AERLTSRVKALFSVL (listed as Homo sapiens) [SEQ ID NO. 9] | very low or no response | 13.9 | 0.8 | 0.6 | 0.8 | 0.7 | 1.2 | 0.7 | 0.8 | 0.6 | 0.5 | 0.8 | 0.9 | 1.3 | 3.2 | 1 | 5.9 | 1 | 3/7 | very low or no response | immunological responses in clinical non-responders [2]: 0/10; patients with CTL responses shown by pentamer analysis [4]: 3
RPGLLGASVL (listed as Homo sapiens) [SEQ ID NO. 25] | – | – | – | – | – | – | – | – | – | – | – | – | – | – | – | – | – | – | – | – | peptide-specific CD8+ T lymphocytes detected by pentamer [4]: second minor CTL population
RPALLTSRL (listed as Homo sapiens) [SEQ ID NO. 5] | – | – | – | – | – | – | – | – | – | – | – | – | – | – | – | – | – | – | – | – | peptide-specific CD8+ T lymphocytes detected by pentamer [4]: stable CD8+ T cell population
PGLLGASVLGLDDIH (listed as Homo sapiens) [SEQ ID NO. 55] | – | – | – | – | – | – | – | – | – | – | – | – | – | – | – | – | – | – | – | – | proliferative T-cell response (detected or not) [2]: recognized by T cells
ALFSVLNYERARRPGLLGASVLGLDDIHRA [SEQ ID NO. 1] | very low or no response | 27.2 | 1 | 1.1 | 0.9 | 1.5 | 44.5 | 2.5 | 1.6 | 5.3 | 0.3 | 1 | 1.9 | 1.8 | 44.5 | 5.7 | 6.9 | 17.1 | 7/7 | very low or no response | T-cell response [2, 25]: very strong responses; reactivity in cancer patients tested ([2]; cancer patients, mostly vaccinated): reactivity in nearly all the cancer patients tested; T-cell response compared with the vaccine peptide GV1001 ([2]; one patient vaccinated with GV1001, certain time points (FIG. 3)): even stronger than to the vaccine peptide itself; proliferative T-cell response (detected or not) [2]: Proliferative T-cell responses were detected; immunological responses in clinical non-responders [2]: 1/10; patients with CTL responses shown by pentamer analysis [4]: Several; CD8+ T cell population after stimulation with peptide-loaded versus non-peptide loaded targets ([5]; pancreas cancer patient (data not shown)): no difference in the CD8+ T cell population; CD4+ T cells secreting IFN-γ, IL-4 and TNF-α ([5]; pancreas cancer patient, one round of in vitro stimulation, autologous EBV-transformed B-cells loaded with same peptide): small population of multifunctional CD4+ T cells; T-cell clones derived from the culture with the peptide that were specific [1, 25]: 75%; Specific clones ([1]; HLA class II allele DR*07, specificity printed as 'Part of 660-689', 1 patient, colon cancer, Schroers et al, 2003): 3; Specific clones ([1]; HLA class II allele DR*14, 2 patients, colon cancer, lung cancer): 6 clones
